From US10870646B2, “Oxazolidinones and pharmaceutical compositions thereof for treating bacterial infections, including infection of Mycobacterium tuberculosis” (University of St. Thomas, priority 2017, dated 2020) come the findings set out here.

For orientation: MIC90 means the lowest concentration that inhibits either 90% of growth or 90% of the strains tested, depending on the study.

Assay [1] relates to Mycobacterium tuberculosis H37Rv. The assay can be described thus: MIC90 broth macrodilution. Type of assay: cell-based.
For another assay, the system named is Mtb. Type of assay: cell-based, Mycobacterium tuberculosis.
The subject of assay [2] is Mycobacterium tuberculosis 124R. As to the kind of experiment: MIC90 broth macrodilution. Type of assay: cell-based.
Assay [3] has as its system Mycobacterium tuberculosis 115R. The assay can be described thus: MIC90 broth macrodilution. The format is cell-based.

Converted amounts (≈) assume the structure as drawn. Like-named read-outs stand apart in the source and are kept apart here.

Take `CC(=O)NC[C@H]1CN(c2ccc3c(c2)Oc2ccccc2O3)C(=O)O1` [Compound T145]: the “activity against growth (in words)” value in assay [1] was “potent activity”. Further, the “frequency of spontaneous mutations that confer resistance” value in the assay with Mtb was 4.0×10^−8. Also, the MIC90 in assay [2] and in assay [3] was 0.5 to 1 µg/mL (≈ 1.47 to 2.94 µM) throughout.

Regarding `COc1cccc2c1Oc1ccc(N3C[C@H](CNC(C)=O)OC3=O)cc1O2` [Compound T197, (S)—N-((3-(6-methoxydibenzo[b,e][1,4]dioxin-2-yl)-2-oxooxazolidin-5-yl)methyl)acetamide], the MIC90 is 4 to 8 µg/mL (≈ 10.8 to 21.6 µM) in assay [2] (read-out: MIC90) and 8 to 16 µg/mL (≈ 21.6 to 43.2 µM) in assay [3] (read-out: MIC90).

As for `CC(=O)NC[C@H]1CN(c2ccc(N3CCOCC3)c(F)c2)C(=O)O1` [Linezolid, reference compound], the MIC90 in assay [2] (read-out: MIC90) and in assay [3] (read-out: MIC90) was 0.25 to 0.5 µg/mL (≈ 0.741 to 1.48 µM) in each case.

In the case of `C[C@@H](O)[C@H]1C(=O)N2C(C(=O)O)=C(S[C@@H]3CN[C@H](C(=O)N(C)C)C3)[C@H](C)[C@H]12` [Meropenem, reference compound], the MIC90 in assay [2] (read-out: MIC90) and in assay [3] (read-out: MIC90) was 8 to 16 µg/mL (≈ 20.9 to 41.7 µM) in each case.
